Assays:
Format in all cases: cell-based
EGFR WT (Ba/F3 cells) = target: T1, EGFR WT (Ba/F3 cells) (Homo sapiens, UniProt P00533); experiment: Inhibitor activity on EGFR-dependent cell growth (CellTiter-Glo, 72 h), Ba/F3 EGFR WT; details: read-out: BaF3 WT IC50
T1 construct: expressed in transfected cells; host or cells: Ba/F3 (murine pro-B cells), retroviral transduction, puromycin selection, maintained with EGF
Outline: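 This growth assay used Ba/F3 cells that depend on wild-type EGFR and are kept in EGF without IL3. Compounds were made up as 10 mM DMSO stocks and diluted 3-fold over 10 points. 120 nL went onto 600 cells/well. After 72 hours, 40 μL CellTiter-Glo was added and luminescence read on EnVision after 30 min.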

[1] = target: T2, EGFR exon 20 ASV Ins V769_D770 (Ba/F3 cells) (Homo sapiens, UniProt P00533, INS769ASV); experiment: Inhibitor activity on EGFR-dependent cell growth (CellTiter-Glo, 72 h), Ba/F3 EGFR exon 20 ASV Ins; details: read-out: BaF3 ASV IC50
T2 construct: expressed in transfected cells; host or cells: Ba/F3 (murine pro-B cells), retroviral transduction, puromycin selection, IL3-independent pool
Outline: (§1)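 IC50s derive from a sigmoidal dose–response fit of CellTiter-Glo signal. The signal was normalised between […]-treated cells and cell-free medium. Ba/F3 mutant-EGFR cells, seeded at 400–800/well depending on the line, had 72 h of exposure to a 10-point, 3-fold compound series.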

[2] = target: T3, EGFR exon 20 SVD Ins D770_N771 (Ba/F3 cells) (Homo sapiens, UniProt P00533, INS770SVD); experiment: Inhibitor activity on EGFR-dependent cell growth (CellTiter-Glo, 72 h), Ba/F3 EGFR exon 20 SVD Ins; details: read-out: BaF3 SVD IC50
T3 construct: expressed in transfected cells; host or cells: Ba/F3 (murine pro-B cells), retroviral transduction, puromycin selection, IL3-independent pool
Outline: as §1

[3] = target: T4, EGFR exon 20 FQEA Ins A763_V764 (Ba/F3 cells) (Homo sapiens, UniProt P00533, INS763FQEA); experiment: Inhibitor activity on EGFR-dependent cell growth (CellTiter-Glo, 72 h), Ba/F3 EGFR exon 20 FQEA Ins; details: read-out: BaF3 FQEA IC50
T4 construct: expressed in transfected cells; host or cells: Ba/F3 (murine pro-B cells), retroviral transduction, puromycin selection, IL3-independent pool
Outline: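 Ba/F3, retrovirally transduced, puromycin-selected, grown without IL3; cells/well: L858R 400, L858R/C797S 600, exon 19del 800, FQEA 800. Cpds from 10 mM DMSO stock, 3-fold ×10 dilution, 120 nL per well; 72 h. CTG readout; IC50 via Hill equation.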

T3 sequence (P00533 with tags, fused parts or gaps INS770SVD): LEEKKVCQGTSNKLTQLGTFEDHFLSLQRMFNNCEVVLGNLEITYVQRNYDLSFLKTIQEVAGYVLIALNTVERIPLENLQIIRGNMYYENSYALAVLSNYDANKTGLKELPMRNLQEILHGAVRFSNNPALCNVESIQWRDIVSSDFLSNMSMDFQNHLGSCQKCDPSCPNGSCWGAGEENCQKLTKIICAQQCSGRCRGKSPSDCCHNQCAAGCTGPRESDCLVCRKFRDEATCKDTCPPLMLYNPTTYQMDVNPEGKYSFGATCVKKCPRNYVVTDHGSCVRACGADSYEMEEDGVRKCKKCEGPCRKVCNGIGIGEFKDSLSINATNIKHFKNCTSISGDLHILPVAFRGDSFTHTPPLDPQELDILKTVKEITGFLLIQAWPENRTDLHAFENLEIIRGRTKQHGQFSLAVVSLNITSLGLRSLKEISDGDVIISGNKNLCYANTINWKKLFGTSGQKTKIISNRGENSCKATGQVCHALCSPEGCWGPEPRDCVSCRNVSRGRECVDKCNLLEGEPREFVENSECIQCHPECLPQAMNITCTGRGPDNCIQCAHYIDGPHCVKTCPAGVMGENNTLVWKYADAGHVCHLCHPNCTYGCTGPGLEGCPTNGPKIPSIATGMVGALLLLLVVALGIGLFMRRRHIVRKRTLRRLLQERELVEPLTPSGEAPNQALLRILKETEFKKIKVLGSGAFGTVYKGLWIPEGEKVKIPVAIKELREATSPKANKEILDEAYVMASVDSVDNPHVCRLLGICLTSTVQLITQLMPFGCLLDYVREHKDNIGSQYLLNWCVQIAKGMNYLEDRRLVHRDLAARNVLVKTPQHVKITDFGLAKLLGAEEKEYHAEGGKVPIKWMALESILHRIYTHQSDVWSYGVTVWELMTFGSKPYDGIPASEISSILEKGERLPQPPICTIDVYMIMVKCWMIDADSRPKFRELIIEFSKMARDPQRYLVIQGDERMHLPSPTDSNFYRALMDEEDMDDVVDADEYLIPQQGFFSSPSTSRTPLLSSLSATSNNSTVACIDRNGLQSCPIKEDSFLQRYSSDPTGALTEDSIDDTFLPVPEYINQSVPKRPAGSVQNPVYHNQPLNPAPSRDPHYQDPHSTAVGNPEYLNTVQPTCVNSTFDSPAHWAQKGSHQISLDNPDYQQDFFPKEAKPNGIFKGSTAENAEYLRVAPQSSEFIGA
T4 sequence (P00533 with tags, fused parts or gaps INS763FQEA): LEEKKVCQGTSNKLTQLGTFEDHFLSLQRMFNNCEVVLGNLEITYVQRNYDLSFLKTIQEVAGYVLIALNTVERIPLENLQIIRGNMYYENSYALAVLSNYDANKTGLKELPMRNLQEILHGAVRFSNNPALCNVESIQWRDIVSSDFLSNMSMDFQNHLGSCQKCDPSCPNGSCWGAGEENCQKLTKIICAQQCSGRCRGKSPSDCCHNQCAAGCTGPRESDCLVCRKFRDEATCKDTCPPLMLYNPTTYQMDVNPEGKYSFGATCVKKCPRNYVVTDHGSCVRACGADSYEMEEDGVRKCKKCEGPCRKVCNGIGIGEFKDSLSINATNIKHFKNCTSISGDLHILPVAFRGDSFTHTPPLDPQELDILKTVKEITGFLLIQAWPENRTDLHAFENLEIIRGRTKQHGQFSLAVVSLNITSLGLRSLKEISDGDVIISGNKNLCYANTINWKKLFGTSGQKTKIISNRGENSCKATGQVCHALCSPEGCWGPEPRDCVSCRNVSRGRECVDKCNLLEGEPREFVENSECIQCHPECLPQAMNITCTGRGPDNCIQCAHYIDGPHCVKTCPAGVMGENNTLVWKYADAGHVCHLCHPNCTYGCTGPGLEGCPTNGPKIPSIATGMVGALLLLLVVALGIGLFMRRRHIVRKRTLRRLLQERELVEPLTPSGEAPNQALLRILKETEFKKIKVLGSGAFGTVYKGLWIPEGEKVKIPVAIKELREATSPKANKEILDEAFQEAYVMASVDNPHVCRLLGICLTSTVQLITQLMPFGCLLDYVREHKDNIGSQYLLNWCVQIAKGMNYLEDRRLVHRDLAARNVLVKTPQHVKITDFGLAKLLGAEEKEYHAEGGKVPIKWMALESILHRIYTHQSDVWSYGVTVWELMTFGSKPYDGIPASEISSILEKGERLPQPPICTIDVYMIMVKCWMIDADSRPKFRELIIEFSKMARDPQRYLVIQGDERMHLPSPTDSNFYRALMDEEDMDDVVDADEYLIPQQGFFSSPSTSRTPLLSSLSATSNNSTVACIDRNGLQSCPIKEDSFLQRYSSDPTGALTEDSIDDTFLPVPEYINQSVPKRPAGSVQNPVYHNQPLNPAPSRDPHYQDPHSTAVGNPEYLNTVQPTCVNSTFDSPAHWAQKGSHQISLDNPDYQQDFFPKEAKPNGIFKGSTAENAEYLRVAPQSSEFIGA
T1 sequence (P00533 25-1210): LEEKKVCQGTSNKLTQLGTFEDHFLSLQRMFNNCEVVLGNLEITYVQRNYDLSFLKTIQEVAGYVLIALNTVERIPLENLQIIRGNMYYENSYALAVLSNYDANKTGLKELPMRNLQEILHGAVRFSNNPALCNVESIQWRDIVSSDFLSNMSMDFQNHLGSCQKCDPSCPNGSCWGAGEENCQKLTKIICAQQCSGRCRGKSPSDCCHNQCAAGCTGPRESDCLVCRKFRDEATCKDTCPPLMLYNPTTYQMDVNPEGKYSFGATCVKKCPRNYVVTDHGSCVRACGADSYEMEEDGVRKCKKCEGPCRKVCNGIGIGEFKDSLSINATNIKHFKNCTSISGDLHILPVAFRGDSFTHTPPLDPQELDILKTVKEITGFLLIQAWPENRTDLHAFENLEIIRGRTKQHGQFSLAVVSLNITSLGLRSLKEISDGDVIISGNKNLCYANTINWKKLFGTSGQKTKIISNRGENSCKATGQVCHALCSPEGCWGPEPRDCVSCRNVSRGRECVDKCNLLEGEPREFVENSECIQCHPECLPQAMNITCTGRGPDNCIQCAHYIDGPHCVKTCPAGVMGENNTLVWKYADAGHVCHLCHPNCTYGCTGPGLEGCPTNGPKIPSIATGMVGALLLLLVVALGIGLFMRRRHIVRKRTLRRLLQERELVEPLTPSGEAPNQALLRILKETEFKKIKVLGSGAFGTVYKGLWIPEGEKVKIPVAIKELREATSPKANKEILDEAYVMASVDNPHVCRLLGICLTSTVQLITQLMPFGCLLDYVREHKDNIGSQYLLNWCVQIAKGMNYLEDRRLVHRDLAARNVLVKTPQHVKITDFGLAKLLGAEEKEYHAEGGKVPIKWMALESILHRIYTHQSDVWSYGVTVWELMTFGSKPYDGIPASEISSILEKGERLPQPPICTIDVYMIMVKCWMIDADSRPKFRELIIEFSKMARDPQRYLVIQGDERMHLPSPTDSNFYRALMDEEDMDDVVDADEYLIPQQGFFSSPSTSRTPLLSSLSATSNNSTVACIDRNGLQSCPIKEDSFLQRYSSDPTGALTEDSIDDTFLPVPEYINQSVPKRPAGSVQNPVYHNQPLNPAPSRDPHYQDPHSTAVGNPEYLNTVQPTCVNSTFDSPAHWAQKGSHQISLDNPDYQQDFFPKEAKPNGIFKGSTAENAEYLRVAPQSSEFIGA
T2 sequence (P00533 with tags, fused parts or gaps INS769ASV): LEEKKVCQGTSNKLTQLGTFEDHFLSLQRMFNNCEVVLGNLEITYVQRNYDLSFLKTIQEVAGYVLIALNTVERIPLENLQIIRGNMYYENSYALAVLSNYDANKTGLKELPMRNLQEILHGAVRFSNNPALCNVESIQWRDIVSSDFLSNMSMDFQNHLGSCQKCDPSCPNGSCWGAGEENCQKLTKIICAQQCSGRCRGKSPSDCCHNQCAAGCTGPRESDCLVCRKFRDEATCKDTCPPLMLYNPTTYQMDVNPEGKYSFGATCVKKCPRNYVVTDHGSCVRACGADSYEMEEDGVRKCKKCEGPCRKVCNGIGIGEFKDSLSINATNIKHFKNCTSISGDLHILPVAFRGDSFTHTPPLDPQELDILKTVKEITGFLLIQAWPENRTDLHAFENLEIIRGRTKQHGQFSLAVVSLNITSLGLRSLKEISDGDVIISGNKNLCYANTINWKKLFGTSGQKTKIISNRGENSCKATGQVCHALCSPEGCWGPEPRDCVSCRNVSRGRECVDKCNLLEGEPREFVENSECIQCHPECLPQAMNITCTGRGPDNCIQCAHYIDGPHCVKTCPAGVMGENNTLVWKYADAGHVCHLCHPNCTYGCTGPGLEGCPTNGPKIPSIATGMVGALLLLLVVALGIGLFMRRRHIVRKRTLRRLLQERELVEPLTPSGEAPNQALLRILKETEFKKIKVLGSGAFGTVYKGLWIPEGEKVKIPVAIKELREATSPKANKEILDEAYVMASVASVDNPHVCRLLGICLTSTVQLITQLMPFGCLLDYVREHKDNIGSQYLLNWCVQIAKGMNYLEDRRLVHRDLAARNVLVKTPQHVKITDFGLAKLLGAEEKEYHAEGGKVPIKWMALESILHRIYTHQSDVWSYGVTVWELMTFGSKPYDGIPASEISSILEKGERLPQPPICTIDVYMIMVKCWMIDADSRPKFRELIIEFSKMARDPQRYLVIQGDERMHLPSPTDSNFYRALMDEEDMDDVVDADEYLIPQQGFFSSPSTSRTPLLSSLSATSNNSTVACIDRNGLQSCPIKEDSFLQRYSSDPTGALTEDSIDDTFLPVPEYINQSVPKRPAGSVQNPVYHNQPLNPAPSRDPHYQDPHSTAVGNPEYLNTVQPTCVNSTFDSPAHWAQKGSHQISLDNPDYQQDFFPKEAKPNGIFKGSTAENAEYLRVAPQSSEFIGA

Row | Structure (SMILES) | IC50 (EGFR WT (Ba/F3 cells)) | IC50 [1] | IC50 [2] | IC50 [3]
1 | COc1c(Cl)cccc1Nc1c(-c2ccncc2F)[nH]c2c1C(=O)NC[C@]21CCN(S(C)(=O)=O)C1 [compound 494] | > 1000 nM | > 1000 nM | > 1000 nM | > 1000 nM
2 | COc1cc2c(-c3[nH]c4c(c3Nc3cccc(Cl)c3OC)C(=O)NCC4)ccnc2cn1 [Compound 772, 3-[(3-chloro-2-methoxyphenyl)amino]-2-(6-methoxy-1,7-naphthyridin-4-yl)-1H,5H,6H,7H-pyrrolo[3,2-c]pyridin-4-one] | > 1000 nM | > 1000 nM | > 1000 nM | > 1000 nM
3 | COCC[C@H]1CNC(=O)c2c(Nc3cccc(Cl)c3OC)c(-c3ccncn3)n(C)c21 (single isomer, unassigned) [Compound 797] | > 1000 nM | > 1000 nM | > 1000 nM | > 1000 nM
4 | COc1c(F)cccc1Nc1c(-c2ccncc2)[nH]c2c1C(=O)NCC2 [compound 243] | > 1000 nM | 100 to 1000 nM | 100 to 1000 nM | 100 to 1000 nM
5 | COc1c(Cl)cccc1Nc1c(-c2ccncc2F)[nH]c2c1C(=O)NC[C@H]2CCF [compound 812] | > 1000 nM | 100 to 1000 nM | 100 to 1000 nM | 100 to 1000 nM
6 | COCC[C@@H]1CNC(=O)c2c1[nH]c(-c1ccnc(C)n1)c2Nc1cccc(Cl)c1OC [463a] | > 1000 nM | 100 to 1000 nM | < 100 nM | 100 to 1000 nM
7 | COCC[C@H]1CNC(=O)c2c1[nH]c(-c1ccncc1F)c2Nc1cccc(F)c1OC(F)F [Compound 471, (7S)-3-{[2-(difluoromethoxy)-3-fluorophenyl]amino}-2-(3-fluoropyridin-4-yl)-7-(2-methoxyethyl)-1H,5H,6H,7H-pyrrolo[3,2-c]pyridin-4-one] | > 1000 nM | 100 to 1000 nM | 100 to 1000 nM | 100 to 1000 nM
8 | COc1c(Cl)cccc1Nc1c(-c2ccncc2F)[nH]c2c1C(=O)NC[C@@H]2CCN1CCOCC1 [compound 485, (7S)-3-[(3-chloro-2-methoxyphenyl)amino]-2-(3-fluoropyridin-4-yl)-7-[2-(morpholin-4-yl)ethyl]-1H,5H,6H,7H-pyrrolo[3,2-c]pyridin-4-one] | > 1000 nM | > 1000 nM | > 1000 nM | > 1000 nM
9 | COc1c(Cl)cccc1Nc1c(-c2ccncc2F)[nH]c2c1C(=O)NC[C@@]21CCN(S(C)(=O)=O)C1 [compound 493] | > 1000 nM | 100 to 1000 nM | 100 to 1000 nM | 100 to 1000 nM
10 | COc1c(Cl)cccc1Nc1c(-c2ccncc2F)[nH]c2c1C(=O)NC[C@]21CCN(C)C1 [compound 815] | > 1000 nM | 100 to 1000 nM | 100 to 1000 nM | 100 to 1000 nM
11 | COCC[C@H]1CNC(=O)c2c1[nH]c(-c1ccncn1)c2Nc1cccc(F)c1OC [Compound 447b] | > 1000 nM | 100 to 1000 nM | 100 to 1000 nM | 100 to 1000 nM
12 | COc1c(Cl)cccc1Nc1c(-c2ccncc2F)[nH]c2c1C(=O)NC[C@H]2CC(=O)N(C)C [Compound 487] | > 1000 nM | 100 to 1000 nM | 100 to 1000 nM | 100 to 1000 nM

Results, then the compound that gave them:

Row | IC50 (EGFR WT (Ba/F3 cells)) | IC50 [1] | IC50 [2] | IC50 [3] | Structure (SMILES)
13 | > 1000 nM | > 1000 nM | > 1000 nM | > 1000 nM | COc1ccc2nccc(-c3[nH]c4c(c3Nc3cccc(Cl)c3OC)C(=O)NCC4)c2c1 [Compound 773, 3-[(3-chloro-2-methoxyphenyl)amino]-2-(6-methoxyquinolin-4-yl)-1H,5H,6H,7H-pyrrolo[3,2-c]pyridin-4-one]
14 | 100 to 1000 nM | < 100 nM | < 100 nM | < 100 nM | COc1ncc2nccc(-c3[nH]c4c(c3Nc3cccc(Cl)c3Cl)C(=O)NCC4)c2n1 [Compound 803, 3-[(2,3-dichlorophenyl)amino]-2-[2-methoxypyrido[3,2-d]pyrimidin-8-yl]-1H,5H,6H,7H-pyrrolo[3,2-c]pyridin-4-one]
15 | > 1000 nM | > 1000 nM | > 1000 nM | > 1000 nM | C=CC[C@H]1CNC(=O)c2c1[nH]c(-c1ccncc1F)c2Nc1cccc(Cl)c1OC [compound 811]
16 | > 1000 nM | 100 to 1000 nM | 100 to 1000 nM | 100 to 1000 nM | COc1c(Cl)cccc1Nc1c(-c2ccncc2F)[nH]c2c1C(=O)NC[C@@H]2CC(C)(C)O [Compound 496, (7S)-3-[(3-chloro-2-methoxyphenyl)amino]-2-(3-fluoropyridin-4-yl)-7-(2-hydroxy-2-methylpropyl)-1H,5H,6H,7H-pyrrolo[3,2-c]pyridin-4-one]
17 | > 1000 nM | 100 to 1000 nM | 100 to 1000 nM | 100 to 1000 nM | COc1c(Cl)cccc1Nc1c(-c2ccnc(-c3ccn(C)n3)n2)[nH]c2c1C(=O)NCC2 [compound 544, 3-[(3-chloro-2-methoxyphenyl)amino]-2-[2-(1-methylpyrazol-3-yl)pyrimidin-4-yl]-1H,5H,6H,7H-pyrrolo[3,2-c]pyridin-4-one]
18 | < 100 nM | < 100 nM | < 100 nM | < 100 nM | COc1c(Cl)cccc1Nc1c(-c2ccnc3ccc(OC4CC4)nc23)[nH]c2c1C(=O)NC[C@H]2C [Compound 769, (R)-3-((3-chloro-2-methoxyphenyl)amino)-2-(6-cyclopropoxy-1,5-naphthyridin-4-yl)-7-methyl-1,5,6,7-tetrahydro-4H-pyrrolo[3,2-c]pyridin-4-one]
19 | 100 to 1000 nM | < 100 nM | < 100 nM | 100 to 1000 nM | CCc1c(Cl)cccc1Nc1c(-c2ccnc3cnc(OC)nc23)[nH]c2c1C(=O)NCC2 [Compound 800, 3-[(3-chloro-2-ethylphenyl)amino]-2-[2-methoxypyrido[3,2-d]pyrimidin-8-yl]-1H,5H,6H,7H-pyrrolo[3,2-c]pyridin-4-one]
20 | < 100 nM | < 100 nM | < 100 nM | < 100 nM | COc1c(Cl)cccc1Nc1c(-c2ccnc3ccc(OC4(C)CC4)nc23)[nH]c2c1C(=O)NC[C@H]2C (single isomer, unassigned) [Compound 774]
21 | < 100 nM | < 100 nM | < 100 nM | < 100 nM | COc1cc2nccc(-c3[nH]c4c(c3Nc3cccc(F)c3OC)C(=O)NCC4)c2nc1OC [Compound 807, 2-(6,7-dimethoxy-1,5-naphthyridin-4-yl)-3-[(3-fluoro-2-methoxyphenyl)amino]-1H,5H,6H,7H-pyrrolo[3,2-c]pyridin-4-one]
22 | 100 to 1000 nM | < 100 nM | < 100 nM | < 100 nM | COc1c(Cl)cccc1Nc1c(-c2ccnc(Nc3ccc(N4CCN(C)CC4)nc3)n2)[nH]c2c1C(=O)NCC2 [compound 518, 3-[(3-chloro-2-methoxyphenyl)amino]-2-(2-{[6-(4-methylpiperazin-1-yl)pyridin-3-yl]amino}pyrimidin-4-yl)-1H,5H,6H,7H-pyrrolo[3,2-c]pyridin-4-one]
23 | 100 to 1000 nM | < 100 nM | < 100 nM | < 100 nM | COc1c(Cl)cccc1Nc1c(-c2ccnc3ccc(OC4CC4)nc23)[nH]c2c1C(=O)NCC21CC1 [compound 323]
24 | 100 to 1000 nM | < 100 nM | < 100 nM | < 100 nM | COc1c(Cl)cccc1Nc1c(-c2ccnc(Nc3cnn(C(C)C)c3)n2)[nH]c2c1C(=O)NCC2 [compound 516, 3-[(3-chloro-2-methoxyphenyl)amino]-2-{2-[(1-isopropylpyrazol-4-yl)amino]pyrimidin-4-yl}-1H,5H,6H,7H-pyrrolo[3,2-c]pyridin-4-one]
25 | < 100 nM | < 100 nM | < 100 nM | < 100 nM | COc1c(Cl)cccc1Nc1c(-c2ccnc3cnc(OC4CC4)nc23)[nH]c2c1C(=O)NCC2 [Compound 771, 3-[(3-chloro-2-methoxyphenyl)amino]-2-{2-cyclopropoxypyrido[3,2-d]pyrimidin-8-yl}-1H,5H,6H,7H-pyrrolo[3,2-c]pyridin-4-one]
26 | 100 to 1000 nM | < 100 nM | < 100 nM | 100 to 1000 nM | COCC[C@@H]1CNC(=O)c2c1[nH]c(-c1ccncc1F)c2Nc1cccc(F)c1OC(F)F [Compound 470, (7R)-3-{[2-(difluoromethoxy)-3-fluorophenyl]amino}-2-(3-fluoropyridin-4-yl)-7-(2-methoxyethyl)-1H,5H,6H,7H-pyrrolo[3,2-c]pyridin-4-one]
27 | < 100 nM | < 100 nM | < 100 nM | < 100 nM | COC[C@@H]1CNC(=O)c2c1[nH]c(-c1ccnc3ccc(OC)nc13)c2Nc1cccc(Cl)c1OC (single isomer, unassigned) [Compound 765]
28 | < 100 nM | < 100 nM | < 100 nM | < 100 nM | COc1ccc2nccc(-c3[nH]c4c(c3Nc3cccc(Cl)c3OC)C(=O)NC[C@@H]4C)c2n1 [310b]
